From patent publication US10683273B2, “Compounds as DNA probes, methods and applications thereof” (JAWAHARLAL NEHRU CENTRE FOR ADVANCED SCIENTIFIC RESEARCH, priority 2015, dated 2020)

Legend:
Type in all cases: binding
[1] = tested on: DM1 (5′-ATAT-3′); experiment: Sequence-specific fluorescence enhancement, variable (A/T)4 core; settings: QCy-DT 2 μM, DM1 4 μM
Description: (§1) All the chemicals, reagents, single-stranded oligos (dA20, dT20, dG20, dC20), self-complementary oligos {d(ATAT)5, (D1)mix, Drew-AT, Calf-Thymus DNA (CT-DNA), (DM1, DM2, DM3, DM4, DM5, DM6 and DM7)}, RNA, were purchased from Sigma-Aldrich. ^1H and ^13C NMR spectra were recorded on a Bruker AV-400 MHz spectrometer with chemical shifts reported as parts per million (ppm) (in DMSO-d6, tetramethylsilane as an internal standard) at 20° C. UV-vis absorption and emission spectra were measured in quartz cuvettes of 1 cm path length. High resolution mass spectra (HRMS) were obtained on Agilent Technologies 6538 UHD Accurate-Mass Q-TOF LC/MS spectrometer. All biophysical studies (UV-vis, fluorescence and Cirular dichroism) are carried out at the concentration 0-5 μM of probe, volume=500 μL, temperature=25° C. and time of incubation=2 minutes. HeLa cells and MCF7 cells used in the biological studies are obtained from “Molecular reproduction, development and genetics lab, Indian institute of science, Bangalore, India”
(§2) Stock solutions of QCy-DT are prepared in double-distilled (dd) water in the order of 10^−3 M and stored at about −10° C. DNA stock solutions are prepared by dissolving oligo samples in double-distilled (dd) water in the order of 10^−4 M. Solutions of DNA duplexes are prepared in Tris-HCl (100 mM, pH=7.4) buffer solution by mixing complementary DNA strands in equimolar concentration. This solution is then subjected to annealing by heating up to about 85° C. for about 15 minutes, subsequently cooled to room temperature for about 7 hours and stored in the refrigerator (about 4° C.) for about 4 hours.
(§3) The UV-vis absorption and emission spectra are recorded on Agilent Technologies Cary series UV-vis-NIR absorbance and Cary eclipse fluorescence spectrophotometers, respectively. Thermal denaturation (UV-melting) studies are carried out on Cary 5000 UV-vis-NIR spectrophotometer equipped with Cary temperature controller in the range of 10° C. to 90° C. with a ramp rate of 1° C./min. The variable temperature/wavelength mode is used. Absorption is monitored at 260 nm with regular 5° C. intervals. Melting temperatures (Tm) of DNA samples are calculated from the first derivatives of the absorption vs. temperature curves (thermal denaturation or melting curves) obtained by monitoring at 260 nm.
(§4) Almost about ˜4-folds difference in fluorescence enhancement of QCy-DT in the presence of (A-T)20 compared to self-complementary, alternative AT-base pair containing d(ATAT)5 duplex is observed, although both contain total 20 AT base pairs (FIG. 3 and FIG. 12a). […] There are no NIR-fluorescence probes that sequence-specifically recognize the minor groove of AT-rich DNA. […] Further, QCy-DT detects all AT-rich sequences by showing varied fluorescence/sensitivity. […]

[2] = tested on: DM2 (5′-ATTA-3′); experiment: as above; settings: QCy-DT 2 μM, DM2 4 μM
Description: as §1, §2, §3, §4

[3] = tested on: DM3 (5′-AAAA-3′); experiment: as above; settings: QCy-DT 2 μM, DM3 4 μM
Description: as §1, §2, §3, §4

[4] = tested on: DM4 (5′-AATT-3′); experiment: as above; settings: QCy-DT 2 μM, DM4 4 μM
Description: as §1, §2, §3, §4

[5] = tested on: 5′-TAATTA-3′; experiment: Fluorescence enhancement, local variations 5′-X(AATT)Y-3′; settings: folds lesser than 5′-AATT-3′ sequence
Description: as §1
(§5) Stock solutions of QCy-DT are prepared in double-distilled (dd) water in the order of 10^−3 M and stored at about −10° C. […]
(§6) The UV-vis absorption and emission spectra are recorded on Agilent Technologies Cary series UV-vis-NIR absorbance and Cary eclipse fluorescence spectrophotometers, respectively. […] Absorption is monitored at 260 nm with regular 5° C. intervals. Melting temperatures (Tm) of DNA samples are calculated from the first derivatives of the absorption vs. temperature curves (thermal denaturation or melting curves) obtained by monitoring at 260 nm.
(§7) To understand finer details of the interactions of QCy-DT with local variations around 5′-AATT-3′ sequence in the minor groove of DNA duplex, fluorescence studies are performed in the presence of DNA containing core hexanucleotide sequences such as 5′-X(AATT)Y-3′ (where X=A/T/G/C and Y is complementary base of X) (FIG. 5a). […] Remarkably, enormous fluorescence enhancement is observed in the presence of DNA with 5′-AAATTT-3′ core, which is ˜4-folds higher than the DNA with 5′-AATT-3′ core sequence alone. […]

[6] = tested on: DNA containing 5′-CAATTG-3′ core; experiment: as above
Description: as §1, §5, §6, §7

[7] = tested on: DNA containing 5′-GAATTC-3′ core; experiment: as above
Description: as §1, §5, §6, §7

C[n+]1c(/C=C/c2ccc(O)c(/C=C/c3sc4ccccc4[n+]3C)c2)sc2ccccc21 [QCy-DT, quinone cyanine-dithiazole]
fluorescence enhancement [1]: ~8 fold
fluorescence enhancement [2]: ~15 fold
fluorescence enhancement [3]: ~40 fold
fluorescence enhancement [4]: ~72 fold
fluorescence enhancement with T at X in 5′-X(AATT)Y-3′, lesser than 5′-AATT-3′ [5]: ~1.5 fold
fluorescence enhancement [6]: very weak fluorescence enhancement
fluorescence enhancement [7]: very weak fluorescence enhancement
